In test [1] the test system is Trypanosoma brucei rhodesiense. Kind of test: In vitro antitrypanosomal activity against Trypanosoma brucei rhodesiense. The test is classed as functional, organism-based.
Test [2] relates to L6. In words: Ratio of cytotoxicity against L6 cells to that of antitrypanosomal activity against Trypanosoma brucei rhodesiense. The test is classed as functional.
Test [3] deals with L6. Kind of test: Cytotoxic activity against rat L6 cells. The test is classed as cell-based.

For orientation: IC50 means the midpoint of a concentration-inhibition curve. A high value points to a need for much substance. In test [1], `N=C(N)c1cccc(/C=N/N=C(\N)N/N=C/c2cccc(C(=N)N)c2)c1` returned an IC50 of 4.5 µM.

On to `c1cc(Nc2ccc(NC3=NCCN3)cc2)ccc1NC1=NCCN1`, for which the Ratio in the test on L6 [2] is 3072.

With `N=C(N)Nc1ccc(Nc2ccc(NC(=N)N)cc2)cc1`, the IC50 in test [1] was 0.022 µM. Besides, the Ratio in the test on L6 [2] is reported as 29.5.

As for `CCOC(CNC(=N)Nc1ccc(Cc2ccc(NC(=N)NCC(OCC)OCC)cc2)cc1)OCC`, the Ratio in the test with L6 [2] is given as more than 554.

`O=C(NCCCN1CCN(C(=O)OCc2ccccc2)C1)OCc1ccccc1`: the IC50 in the test on L6 [3] was found to be 106 µM; in test [1] it was 3.9 µM. Besides, the Ratio with L6 [2] is recorded as 27.

Turning to `N=C(N)NCCCCCCCCCNC(=N)N`, the results for the IC50 (in the test on L6 [3]; in test [1]) were more than 265 µM and 0.049 µM, respectively. The Ratio with L6 [2] is recorded as more than 5294.

In the case of `O=C(NCCCN(CCNC(=O)OCc1ccccc1)CCc1ccccc1)OCc1ccccc1`, the IC50 in the test on L6 [3] is 24.7 µM; in test [1], 3.88 µM. The Ratio in the test with L6 [2] was 6.4.

Take `CC(C)(C)OC(=O)/N=C(/C=C(/O)OC(C)(C)C)Nc1ccc(Cc2ccc(N/C(=N\C(=O)OC(C)(C)C)NC(=O)OC(C)(C)C)cc2)cc1`: in test [1], 31.7 µM corresponded to half-maximal inhibition (IC50).

In the case of `CN(CCCNC1=NCCN1)CCNC1=NCCN1`, in test [1], the IC50 amounted to 46.6 µM.

In the case of `C(CCCCNC1=NCCN1)CCCNC1=NCCN1`, the IC50 is 4.2 µM with L6 [3] and 0.453 µM in test [1]. Also, the Ratio with L6 [2] was 9.4.

`c1ccc(CCN(CCCNC2=NCCN2)CCNC2=NCCN2)cc1` showed an IC50 in test [1] of 27.6 µM.

For `CC(C)(C)OC(=O)/N=C(\NC(=O)OC(C)(C)C)Nc1ccc(S(=O)(=O)c2ccc(N/C(=N/C(=O)OC(C)(C)C)NC(=O)OC(C)(C)C)cc2)cc1`, in test [1], 24.4 µM corresponded to half-maximal inhibition (IC50).

As to `CC(C)(C)OC(=O)N1CCN(C(=O)OC(C)(C)C)C1=Nc1ccc(C(=O)c2ccc(N=C3N(C(=O)OC(C)(C)C)CCN3C(=O)OC(C)(C)C)cc2)cc1`, the IC50 in test [1] was 7.2 µM.

Regarding `N=C(N)Nc1ccc(C(=O)c2ccc(NC(=N)N)cc2)cc1`, the Ratio with L6 [2] worked out at 13.1.

Consider `CC(C)(C)OC(=O)/N=C(/C=C(/O)OC(C)(C)C)Nc1ccc(Nc2ccc(N/C(=N\C(=O)OC(C)(C)C)NC(=O)OC(C)(C)C)cc2)cc1`, for which the values for the IC50 (with L6 [3]; in test [1]) were 3.7 µM and 0.47 µM, respectively. The Ratio in the test with L6 [2] was found to be 7.9.

On to `C1CCC(/N=C(\NC2CCCCC2)N(CCCN=C(NC2CCCCC2)NC2CCCCC2)CCN=C(NC2CCCCC2)NC2CCCCC2)CC1`, for which the IC50 with L6 [3] is more than 83 µM; in test [1], 0.98 µM. For the same molecule, the Ratio in the test with L6 [2] was more than 82.

For `CC(C)(C)OC(=O)/N=C(\NC(=O)OC(C)(C)C)Nc1cccc(N2CCN(c3cccc(N/C(=N\C(=O)OC(C)(C)C)NC(=O)OC(C)(C)C)c3)CC2)c1`, in test [1], the IC50 is 13.8 µM.

As to `C1CNC(N2CCC(N3CCN(C4=NCCN4)CC3)CC2)=N1`, in test [1], the IC50 is 71.2 µM.

Take `N=C(N)Nc1ccc(S(=O)(=O)c2ccc(NC(=N)N)cc2)cc1`: the Ratio with L6 [2] is reported as more than 51.

Regarding `CCOC(CNC(=N)Nc1ccc(Nc2ccc(NC(=N)NCC(OCC)OCC)cc2)cc1)OCC`, the Ratio in the test with L6 [2] is on record as more than 767.

Turning to `CC(C)(C)OC(=O)N1CCN(C(=O)OC(C)(C)C)C1=Nc1ccc(Cc2ccc(N=C3N(C(=O)OC(C)(C)C)CCN3C(=O)OC(C)(C)C)cc2)cc1`, the IC50 in test [1] was 11.6 µM.

`CCCCCCCCN=C(N)N` returned a concentration for half-maximal inhibition (IC50) in test [1] of 49.1 µM.

Consider `CCCCC[P+](CCCCC)(CCCCC)c1ccc(C(=O)c2ccc([P+](CCCCC)(CCCCC)CCCCC)cc2)cc1.[Br-].[Br-]`, for which the IC50 in the test with L6 [3] stood at 11.8 µM; in test [1], 0.414 µM. Further, the Ratio in the test on L6 [2] was determined as 28.5.

`O=[N+]([O-])c1ccc(-c2ccc([N+](=O)[O-])cc2)cc1`: in test [1], the IC50 was 41.8 µM.

On to `N=C(N)NCCCCCCCCCCCCNC(=N)N`, for which the IC50 with L6 [3] turned out to be 0.63 µM; in test [1], 0.047 µM. Moreover, the Ratio in the test with L6 [2] is listed as 13.

Consider `N=C(N)NCCCCCCCCNC(=N)N`, for which the IC50 in the test on L6 [3] was more than 276 µM; in test [1], 0.251 µM. In the test on L6 [2], the Ratio was more than 1100.

With `O=C(c1ccc(NC2=NCCN2)cc1)c1ccc(NC2=NCCN2)cc1`, the Ratio in the test on L6 [2] is reported as more than 104.

Take `CCCCCCCCCN=C(N)N`: in test [1], 19.9 µM corresponded to half-maximal inhibition (IC50).

With `CCCNCCCNC1=NCCN1`, the IC50 in test [1] turned out to be 113 µM.

For the molecule `N=C(N)NCCNCCNC(=N)N`, the IC50 in test [1] is 16.1 µM. This IC50 is about 7-fold lower than that of the molecule before.

As to `N=C(N)Nc1ccc(-c2ccc(NC(=N)N)cc2)cc1`, the IC50 in the test on L6 [3] is 46.4 µM; in test [1], 0.27 µM. Besides, the Ratio with L6 [2] is 172.

On to `C1CNC(NCCNCCNC2=NCCN2)=N1`, for which the IC50 in test [1] turned out to be 84.4 µM. This lies in the double-digit micromolar range.

Regarding `c1c[nH]c(Nc2ccc(Nc3ccc(Nc4ncc[nH]4)cc3)cc2)n1`, the IC50 with L6 [3] turned out to be 113 µM; in test [1], 1.4 µM. For the same molecule, the Ratio with L6 [2] amounted to 80.7.

For the molecule `C(CNCCCNC1=NCCN1)CNC1=NCCN1`, the IC50 in test [1] was 29.7 µM.

Consider `C(CCCNC1=NCCN1)CCNC1=NCCN1`, for which it took 19.3 µM to reach half-maximal inhibition in test [1] (IC50).

In the case of `CN(CCCNC(=O)OCc1ccccc1)CCNC(=O)OCc1ccccc1`, the IC50 was found to be 130 µM with L6 [3] and 3.1 µM in test [1]. Besides, the Ratio in the test with L6 [2] was 41.

Turning to `CC(C)(C)OC(=O)N1CCC(N2CCN(C(=O)OC(C)(C)C)CC2)CC1`, the midpoint of inhibition in test [1], the IC50, lay at 30.3 µM. That is a double-digit micromolar value.

In turn, `N=C(N)NCCCNCCNC(=N)N` had an IC50 in test [1] of 21.4 µM.

For `N=C(N)NCCCCCCNC(=N)N`, the IC50 was more than 302 µM with L6 [3] and 8.05 µM in test [1]. In addition, in the test on L6 [2], the Ratio is given as more than 37.

Regarding `c1cc(NC2=NCCN2)ccc1Cc1ccc(NC2=NCCN2)cc1`, the Ratio in the test with L6 [2] was 71.

For the molecule `CC(C)(C)OC(=O)N1CCN(C(=O)OC(C)(C)C)C1=Nc1ccc(Nc2ccc(N=C3N(C(=O)OC(C)(C)C)CCN3C(=O)OC(C)(C)C)cc2)cc1`, in the test with L6 [2], the Ratio was 202.

`O=C(c1ccc(Br)cc1)c1ccc(Br)cc1`: the IC50 with L6 [3] is more than 244 µM; in test [1] it was 25.9 µM. Besides, the Ratio in the test on L6 [2] is more than 9.4.

With `O=C(NCCCN(CCO)CCNC(=O)OCc1ccccc1)OCc1ccccc1`, the IC50 was 116 µM in the test on L6 [3] and 14 µM in test [1]. Also, in the test with L6 [2], the Ratio stood at 8.3.

In the case of `CC(=O)OCCN(CCCNC(=O)OCc1ccccc1)CCNC(=O)OCc1ccccc1`, the IC50 is more than 191 µM with L6 [3] and 7.1 µM in test [1]. In addition, the Ratio in the test on L6 [2] is given as more than 26.

In the case of `CN(CCN)CCCN`, the IC50 in test [1] was 61.8 µM.

Consider `C(CCCCCCNC1=NCCN1)CCCCCNC1=NCCN1`, for which the IC50 with L6 [3] turned out to be 2.35 µM; in test [1] it was 0.107 µM. In addition, the Ratio in the test on L6 [2] stood at 22.

Take `C(CCCCNC1=NCCN1)CCCCNC1=NCCN1`: the IC50 with L6 [3] was determined as 16 µM; in test [1] it was 0.225 µM. Besides, the Ratio with L6 [2] came to 71.

In test [1], `NCCCN(CCN)CCc1c[nH]c2ccccc12` had an IC50 of 13.8 µM.

In test [1], `C1CC(N2CCNCC2)CCN1` displayed an IC50 of 57.9 µM.

Regarding `N=C(N)NCCCNCCCNC(=N)N`, 21.2 µM corresponded to half-maximal inhibition in test [1] (IC50).

The molecule `CC(C)(C)OC(=O)NCC/N=C(\S)N1CCC(N2CCN(/C(S)=N\CCNC(=O)OC(C)(C)C)CC2)CC1` returned an IC50 in test [1] of 12.6 µM.

For `NCCCN(CCN)CCc1ccccc1`, the IC50 with L6 [3] was 214 µM; in test [1], 17.4 µM. Moreover, the Ratio in the test on L6 [2] was 12.

With `N=C(N)Nc1ccc(Cc2ccc(NC(=N)N)cc2)cc1`, the Ratio in the test on L6 [2] is on record as 17.4.

Regarding `O=C(NCCCN(CCNC(=O)OCc1ccccc1)CCc1c[nH]c2ccccc12)OCc1ccccc1`, the IC50 with L6 [3] came out at 7.8 µM; in test [1] it was 1 µM. For the same molecule, the Ratio in the test with L6 [2] is on record as 7.8.

For the molecule `CC(C)(C)OC(=O)N1CCN(C(=O)OC(C)(C)C)C1=Nc1ccc(S(=O)(=O)c2ccc(N=C3N(C(=O)OC(C)(C)C)CCN3C(=O)OC(C)(C)C)cc2)cc1`, in the test with L6 [2], the Ratio came out at 21.7.

`N=C(N)NCCCN(CCNC(=N)N)CCc1ccccc1`: the IC50 was more than 199 µM in the test with L6 [3] and 4.5 µM in test [1]. In the test with L6 [2], the Ratio is more than 43.

Consider `O=C(CN1CCCN(C(=O)OCc2ccccc2)C1)OCc1ccccc1`, for which the IC50 stood at 89 µM in the test on L6 [3] and 4.78 µM in test [1]. The Ratio in the test on L6 [2] is reported as 18.6.

In the case of `C(CNCCNC1=NCCN1)CNC1=NCCN1`, the IC50 in test [1] was 69.1 µM.

For the molecule `c1cc(-c2ccc(NC3=NCCN3)cc2)ccc1NC1=NCCN1`, the IC50 was determined as 104 µM in the test on L6 [3] and 0.118 µM in test [1]. The Ratio with L6 [2] was determined as 881.

On to `C1CCC(NC(=NCCCNCCN=C(NC2CCCCC2)NC2CCCCC2)NC2CCCCC2)CC1`, for which, in test [1], the IC50 was 2.4 µM.

With `Nc1ccc(-c2ccc(N)cc2)cc1` [BENZIDINE], the IC50 with L6 [3] was more than 217 µM; in test [1] it was 1.42 µM. For the same molecule, the Ratio in the test with L6 [2] was more than 152.

`N=C(N)c1ccc(/N=N/Nc2ccc(C(=N)N)cc2)cc1` [DIMINAZENE DIACETURATE] gave an IC50 in test [1] of 0.0089 µM.

In the case of `CCCCCCCCCCCCNC(=N)N` [DODINE], the IC50 in the test on L6 [3] is 19.6 µM; in test [1] it was 11 µM. For the same molecule, the Ratio in the test on L6 [2] is 1.8.

`Nc1nc(N)nc(Nc2ccc([As]3SCC(CO)S3)cc2)n1` (stereo unspecified) [MELARSOPROL] gave an IC50 in test [1] of 5.5 µM. The Ratio in the test with L6 [2] is given as 3456.
